Results on one molecule are retold here after patent US6013283A (priority 1997, dated 2000).

Each structure is given as a SMILES string.

This data set can be described thus: Water solubility (dissolution in water).

Procedure: Stability of this compound was determined by dissolving small amounts in water, pH 7.8 phosphate buffer and methanol.
The stability of the product is determined by dissolving in deionized water and pH 7.26 phosphate buffer.

For `Nc1c2c(nc3ccccc13)CCCC2` [Tacrine, tacrine], the “WATER SOLUBILITY (in words)” value is on record as “Insoluble”.
